Values quoted from earlier work as cited in US20160199396A1 (TEVA Pharmaceutical Industries Ltd., priority 2013, published 2016).

Conditions: background statement

BCS (biopharmaceutical classification system) class: class IV
Structure (SMILES): CC(C)c1nc(CN(C)C(=O)N[C@H](C(=O)N[C@@H](Cc2ccccc2)C[C@H](O)[C@H](Cc2ccccc2)NC(=O)OCc2cncs2)C(C)C)cs1 [Ritonavir, 1,3-thiazol-5-ylmethyl N-[(2S,3S,5S)-3-hydroxy-5-[(2S)-3-methyl-2-{[methyl({[2-(propan-2-yl)-1,3-thiazol-4-yl]methyl})carbamoyl]amino}butanamido]-1,6-diphenylhexan-2-yl]carbamate]
